Data from a melting point compilation (Tetko et al.; mined from patent text by program, amines drawn as free bases though some values may be those of a salt).

| Compound | melting point |
| --- | --- |
| O=C1Nc2ncccc2CN1C1CCN(Cc2ccccc2)CC1 | 187 °C |
| O=C1CCC(O)C(C(c2ccccc2)c2ccccc2)N1 (stereo not given) | 208 °C |
| O=C(c1cccc(Cl)c1)c1ccccc1Nc1ncccc1[N+](=O)[O-] | 124 to 125 °C |
| O=C(NC1CCCCC1)NS(=O)(=O)c1ccc(CCNC(=O)N2Cc3ccccc3C2=O)cc1 | 211 to 213 °C |
| CC(C)Oc1cc(CCC(=O)O)n(Cc2ccc(C(F)(F)F)cc2Cl)n1 | 122 °C |
| CCOc1cc(Cl)ccc1C=NNC(=N)NN=Cc1ccc(Cl)cc1OCC | 180 to 182 °C |
| Cc1cc(=O)n(-c2cc(C(=O)OC(C)C)c(Cl)cc2F)c(=O)n1C(F)F | 90 to 93 °C |
| Cc1oncc1C(=O)N1CCSCC1 | 64.5 to 65 °C |
| COc1cc(C(C)C)c2c(c1)S(=O)(=O)N(COc1cc(C#N)nn1-c1ccc(Cl)cc1Cl)C2=O | 183 to 184 °C |
| COC1CCN(c2c(Cl)cc3c4c(cccc24)C(=O)N(O)C3=O)C1 (stereo not given) | 136 to 142 °C |
| COC(=O)C(Cc1ccc(-c2cccc(CNCC(=O)c3ccccc3)c2)cc1)Nc1ccccc1C(=O)c1ccccc1 (stereo not given) | 75 °C |
| COC(=O)c1ccc(-c2ccc(NC(=O)c3ccc(OC)c(CCCN(C)C)c3)cc2)cc1 | 188 to 192 °C |
| CCOC(=O)c1c(C(F)(F)F)nc(C(F)(F)F)c(C(=O)OCC)c1Br | 56 to 61 °C |
| NCCc1csc(N)n1 | 69 to 71 °C |
| Cc1ccc(NCCC(N)=S)c(C)c1 | 104 to 105 °C |
| CCOC(=O)C1(c2ccccc2)CCC=CC1OC(C)=O (stereo not given) | 72 to 73 °C |
| O=c1[nH]c2cc(Br)cc(Br)c2c(=O)n1Cc1ccccc1Cl | 133 to 136 °C |
| Cc1ccc(C(=O)c2noc(CC(=O)O)n2)cc1 | 140 to 141 °C |
| CCOC(=O)c1nc(C2CC2)nc(NCc2ccccc2)c1Cl | 59 to 61 °C |
| COC(=O)Cc1ccc(O)c(F)c1 | 32 to 34 °C |
| OC1CCCCCC1n1cncn1 (stereo not given) | 85 to 86 °C |
| COC(=O)C(Cl)=Cc1cc(N)ccc1Cl | 104 to 105 °C |

| Compound | melting point |
| --- | --- |
| Cc1ccc(S(=O)(=O)n2ccc3c(OCC4CO4)cccc32)cc1 (stereo not given) | 109 to 112 °C |
| CCOC(=O)c1cc(-n2c(=O)c(C)c(C)n(C)c2=O)ccc1Cl | 159 to 161 °C |
| O=C(NCCNC1CCC(c2ccc3[nH]c(=O)oc3c2)CC1)c1ccccc1 (stereo not given) | 167 to 175 °C |
| CCCCCCCCCCCCCCCCCCSC(C)CC#N (stereo not given) | 38 °C |
| O=C(O)CCCCNC(=O)CCCCC1CCSS1 (stereo not given) | 98 to 100 °C |
| N#CSCOc1c(Cl)cc(Cl)c(Cl)c1Cl | 51 to 53 °C |
| O=C(Cn1c(=O)c2cc(Cl)ccc2n(Cc2ccc(Cl)cc2Cl)c1=O)OCCO | 167 to 168 °C |
| COc1ccc(CC(CC(=O)O)CC(=O)O)cc1 | 109 to 110 °C |
| CCC(C)(C)c1cc(-c2cccc(C=C3SC(N4CCOCC4)=NC3=O)c2)cc(F)c1O | 206 to 208 °C |
| CN1CC(CCCCN2CCN(c3ccccc3)CC2)OC1=O (stereo not given) | 85 to 88 °C |
| Cc1cccc(C)c1N(CC(=O)N(C)C)C(=O)CCl | 74 to 76 °C |
| CCCCCCCCCCCCCCCC[C@]1(CO)CC(=O)N1 | 82 °C |
| N#CNC(=S)Nc1ccc([N+](=O)[O-])cc1 | > 250 °C |
| CN(Cc1cc2c(=O)c(C(=O)NCc3ccc(Cl)cc3)cn(C)c2s1)CC(O)c1ccc(O)cc1 (stereo not given) | 134 to 143 °C |
| C=CCO/N=C(\C(=O)OC)c1csc(NC(c2ccccc2)(c2ccccc2)c2ccccc2)n1 | 115 to 116 °C |
| CCOC(=O)N1CCC(c2nc(-c3ccc(-c4ccccc4)cc3)c[nH]2)CC1 | 71 to 72 °C |
| O=C(O)CCc1cccc(Oc2cccc(-c3nnc(Nc4ccc(Cl)c(Cl)c4)s3)c2)c1 | 194 to 196 °C |
| ON=Cc1sc(Cl)nc1Cl | 160 °C |
| O=C(Nc1ccc(-c2ccccc2)cc1C(=O)O)OCc1ccc(-c2ccccc2)cc1 | 234 to 236 °C |
| Cc1cc(OCC(=O)NCCO[N+](=O)[O-])no1 | 93 to 94 °C |
| CC1(C)COCC(C)(C)N1N=O | 47 °C |
| CN1C(=O)N(c2cc(Cl)cc(Cl)c2)C(=O)[C@]12CN(C1CC1)C[C@H]2c1ccc(C#N)cc1 (relative stereo) | 216 °C |

| Compound | melting point |
| --- | --- |
| COC(=O)[C@H](Cc1ccc(OCc2ccccc2)cc1)NC(=O)C(CSC(C)=O)Cc1ccccc1 (stereo not given in full) | 92 to 93 °C |
| C=CCc1c(OCCCOc2ccc3c(c2)OC(C(=O)O)CC3)ccc(C(C)=O)c1OC (stereo not given) | 85.5 °C |
| N#Cc1cnc2cnc(F)cc2c1Nc1ccc(F)c(Cl)c1 | 108 to 111 °C |
| N#Cc1cc(S(=O)(=O)c2ccc(N)cc2)cc(Br)n1 | 186 to 188 °C |
| O=C(Nc1nc(-c2ccco2)c(C(=O)C2CCOCC2)s1)c1ccco1 | 196 to 198 °C |
| CCCc1c(C(=O)C(C)C)c2ccc(C(=O)OC)cc2n1Cc1ccccc1OC | 103 to 105 °C |
| CCOC(=O)c1ccc(C(F)(F)F)c(OC2CCOC2)n1 (stereo not given) | 45 to 45.5 °C |
| CCOC(=O)C1N=C(c2ccccc2)c2cc([N+](=O)[O-])ccc2NC1=O (stereo not given) | 271 °C |
| O=C(O)c1cn(-c2cc([N+](=O)[O-])c(F)c(F)c2F)c2nc(Cl)c(F)cc2c1=O | 216 to 221 °C |
| O=[N+]([O-])c1cc(CCl)cc([N+](=O)[O-])c1CCl | 106 °C |
| CCCCCCN(CCCC(=O)Nc1c(SC)nc(C)nc1N(CC)CC)c1ccc(Br)cc1 | 89.8 to 93 °C |
| CCOC(=O)c1nc(-c2ccc(Cl)cc2F)cc(N)c1OCC(F)(F)F | 123 to 135 °C |
| CC1CC(C)(C)C(=O)C(C(=O)c2ccc(OC(F)F)cc2[N+](=O)[O-])C1=O (stereo not given) | 108 to 110 °C |
| COc1ccc(-n2cc(CCC(=O)NS(C)(=O)=O)c(-c3ccc(Cl)c(F)c3)n2)cc1Cl | 211 to 212 °C |
| CCc1cc2c3c(cc(C)c2[nH]c1=O)CC(C)(CN=[N+]=[N-])O3 (stereo not given) | 211 to 212 °C |
| CCN(CC)CCOC(=O)C1=C(C)NC(C)=C(c2nnco2)C1c1cccc(Cl)c1Cl (stereo not given) | 142 to 144 °C |
| CCOC(=O)C(C(C)=O)=C(N)C(F)(F)F | 63 to 65 °C |
| COc1ccc(-c2ccccc2C(SCC(=O)c2ccccc2)C(O)C(N)=O)cc1 (stereo not given) | 132 to 134 °C |
| COc1ccc2c(c1)COc1c-2cc(-c2cccs2)c2cc(OC)ccc12 | 110 to 112 °C |
| O=[N+]([O-])c1cc(Br)nc(Br)c1 | 122 to 123 °C |
| CCN(CC)CCNc1cc(Cl)cc(NCCN(CC)CC)c1[N+](=O)[O-] | 90 °C |

Further lines, results first:

| melting point | Compound |
| --- | --- |
| 221 to 224 °C | FC(F)(F)c1ccc2nc(N3CCN(c4ncccc4C(F)(F)F)CC3)[nH]c2c1 |
| 150 to 154 °C | Cc1c(CNC(C)C)ncn1C(c1ccccc1)(c1ccccc1)c1ccccc1 |
| 185 to 186 °C | CSc1cc2cc(C)ccc2cc1C=Cc1cc2ccc(C)cc2cc1SC |
| > 200 °C | Oc1ccc(CCN2CCC(=C3c4sccc4CCn4ccnc43)CC2)cc1 |
| 99 to 102 °C | O=C(O)Cc1cccc(Oc2cccc(Cl)c2)c1O |
| 297 to 298 °C | COCCn1cc2c(C3C(=O)Nc4ccc(Br)cc43)nc(NCCCN(C)C)nc2n1 (stereo not given) |
| 260 to 261 °C | N#Cc1cccc(-n2cc(-c3ccccn3)cn2)n1 |
| 150 to 152 °C | N#CC(=Cc1ccncc1)c1cccnc1 |
| 142 to 143 °C | COc1ccc2c(c1)C(CCNC(=O)c1ccc(Br)cc1)CC2 (stereo not given) |
| 220 to 221 °C | Oc1ccc2cc(-c3cc4ccccc4s3)ccc2c1Cl |
| 206 to 208 °C | COc1ccc([N+](=O)[O-])c(Nc2ccc3[nH]ncc3c2)n1 |
| 120 to 123 °C | CC(C)(C)c1cc(CCc2n[nH]c(=O)o2)cc(C(C)(C)C)c1O |
| 199 to 200 °C | CC(C)c1ccc(NC(=O)c2ccc(C(=O)O)nc2)cc1C(C)C |
| 180 to 181 °C | CCN(CC)c1ccc(CNc2cc(C(=O)Nc3ccccc3)ccc2OC)cc1 |
| 197 to 202 °C | CC(=NNc1ccc(C2=NNC(=O)CC2)cc1)c1cnccn1 |
| 261 to 265 °C | NC(=O)C1CCN(Cc2cnc3cc(NC(=O)c4ccc(-c5ccc(F)cc5)cc4)ccc3c2)CC1 |
| 108 °C | COc1ccc(-c2nccn2N=Cc2ccc(N(C)C)cc2)cc1 |
| 164 to 166 °C | COc1ccc(C(=O)c2cccc3c2CCC3C(N)=O)cc1 (stereo not given) |

| melting point | Compound |
| --- | --- |
| 106 to 108 °C | COC(=O)C(Oc1ccc(C(C)(C)C)cc1)c1ccc(Sc2ccc(Cl)cc2)cc1 (stereo not given) |
| 150 to 155 °C | COC(=O)c1nccc2c1[nH]c1ccc(Oc3ccc([N+](=O)[O-])cn3)cc12 |
| 122 to 126 °C | COc1ccc(Oc2ccc3nc(COc4ccc(CC5SC(=O)NC5=O)cc4)n(C)c3c2)cc1 (stereo not given) |
| 130 to 131 °C | COC(=O)c1c(C)nc2c(c1N)c1c(n2Cc2ccc(OC)cc2)CCCC1 |
| 132 to 134 °C | Cc1cc(C)c(Nc2nc(C)ccc2S(=O)(=O)c2ccc(OCc3c(F)cccc3[N+](=O)[O-])cc2)c(C)c1 |
| 192 to 194 °C | COc1cc(CCNC(=O)c2cccnc2)ccc1O |
| 210 °C | Nn1ccnc1-c1ccc(Cl)cc1 |
| 207 to 208 °C | CC(C)(C)c1ccc(CSc2nc3cnccc3[nH]2)cc1 |
| 136 to 137 °C | CC(C)(C)c1cc2c(c(C(C)(C)C)c1)OC(=O)C2c1ccc(C#N)cc1 (stereo not given) |
| 88 to 90 °C | COc1ccc(C(=O)c2cccc(Br)c2F)cc1 |
| 134 °C | CN(CCOC1CCCCO1)c1cc(NC(=O)OC(C)(C)C)c([N+](=O)[O-])cc1C#Cc1ccc(F)cc1 (racemic) |
| 134 to 135 °C | CCOC(=O)c1ccc(CCNc2ncnc(CC)c2Cl)cc1 |
| 141 to 142 °C | O=S(=O)(c1ccc(Cl)cc1)C(c1cc(F)ccc1F)c1cc(NCc2ccncc2)ncc1Cl (stereo not given) |
| 64 to 65 °C | CC(=O)c1nnc(-c2ccc3occ(-c4cccc(OC(F)(F)F)c4)c3c2)o1 |
| 197 to 198 °C | O=C1Nc2cccc(-c3cccc(C(F)(F)F)c3)c2/C1=C/c1ccc[nH]1 |
| 205 °C | CC1=C(C(=O)OC(C)C)C(c2cccc3ccc(-c4ccccc4)nc23)C([N+](=O)[O-])=C(C)N1 (stereo not given) |
| 46 to 47 °C | CSc1ccc(C2=C(c3ccc(F)cc3)CCC2)cc1 |
